Source: patent US6815455B1, “Benzimidazole compounds and drugs containing the same” (Fuji Photo Film Co., Ltd., priority 1999, dated 2004)
Where two headings read alike, the source gives them in different places.

Tested on: mouse peritoneal macrophages
Assay: In vitro experiment using mouse peritoneal macrophages: suppression of foaming, cholesterol ester (CE) yield
Assay type: cell-based
Conditions: for inhibitory effect on macrophages (rate of cholesterol ester synthesis), in words: mouse peritoneal macrophages, 5 μM
[1] = test compound 5 μM with liposomes, 16 hours, cholesterol ester yield relative to control without test compound = 100%, smaller value = more potent suppression

Compound	CE yield (%)	CE yield (%) [1] [%]	inhibitory effect on macrophages (rate of cholesterol ester synthesis), in words
1-(5-(benzimidazoyl-2-thio)pentyl)piperidine [Compound 1]	22	–	–
1-(5-benzimidazolyl-2-thio)pentyl-1,2,3,4-tetrahydro-quinoline [Compound 34]	21	–	–
2-(5-(4-morpholino))-5-chlorobenzimidazole [Compound 20]	–	25	–
2-(5-(4-morpholino))-5-methoxybenzimidazole [Compound 19]	–	24	–
2-(5-(4-morpholino))-5-methylbenzimidazole [Compound 9]	–	21	–
2-(6-(1-(4-cyano-4-phenyl)piperidino)heptyl)-1H-benzimidazole [Compound 57]	22	–	–
2-(6-(1-(4-hydroxy-4-phenyl)piperidino)heptyl)-1H-benzimidazole [Compound 58]	20	–	–
4-(5-(benzimidazolyl-2-thio)pentyl)morpholine [Compound 2]	–	18	–
CCCn1c(SCCCCCN2CCOCC2)nc2ccccc21 [Compound 6, 4-(5-(1-propylbenzimidazolyl-2-thio)pentyl)morpholine]	–	27	–
CCC(=O)n1c(SCCCCCN2CCOCC2)nc2ccccc21 [Compound 7, 4-(5-(1-propionylbenzimidazolyl-2-thio)pentyl)morpholine]	–	22	–
O=C(CCCCSc1nc2ccccc2[nH]1)N1CCCc2ccccc21 [Compound 33, 1-(5-(4-benzimidazolyl-2-thio)valeryl)-1,2,3,4-tetrahydro-quinoline]	–	18	–
c1ccc2[nH]c(SCCOCCN3CCOCC3)nc2c1 [Compound 50, 4-(2-(2-benzimidazoyl-2-thio)ethoxy)ethylmorpholine]	–	4.6	–
N#CC1(c2ccccc2)CCN(CCCCCOc2nc3ccccc3[nH]2)CC1 [Compound 55, 1-(5-(benzimidazoyl-2-oxy)pentyl)-4-cyano-4-phenyl-piperidine]	21	–	–
CC(C)Oc1cccc(OC(C)C)c1NC(=O)CN1CCN(CCCSc2nc3ccccc3[nH]2)CC1 [Ref. 1, reference compound]	–	95	almost no inhibitory effect
CC(C)c1cc(C(C)C)c(NC(=O)CN2CCN(CCSc3nc4ccccc4[nH]3)CC2)c(C(C)C)c1 [Ref. 2, reference compound]	–	98	almost no inhibitory effect
CCCCCCN(CCCCCSc1nc2ccccc2[nH]1)C(=O)Nc1ccc(F)cc1F [Ref. 3, reference compound]	–	78	almost no inhibitory effect
O=C(CCN1CCCCC1)CSc1nc2ccccc2[nH]1 [Ref. 4, reference compound]	–	89	completely inactive
COc1ccc2[nH]c(SCCN3CCNCC3)nc2c1 [Ref. 5, reference compound]	–	102	completely inactive
